Experimental data: patent USRE38825E1, “Glyphosate tolerant plants” (Monsanto Technology LLC, priority 1990, dated 2005)

Tests used:
[1] = target: LBAA glyphosate oxidoreductase variant v1w2v3 (GLY84, LYS153, ARG334) (Ochrobactrum sp. G-1, UniProt D2KI28, H334R/S2A/S84G); experiment: Kinetic analysis of domain switches, clone v1w2v3; format: biochemical, bacterial isolate LBAA (Pseudomonas strain LBAA); details: substrate glyphosate
Procedure: (§1) The mutagenesis procedure used was that of Mn++-poisoned PCR and the template was a linearized glyphosate oxidoreductase gene plasmid containing the synthetic glyphosate oxidoreductase gene (SEQ ID NO:8). The oligonucleotide primers used were homologous to regions in the vector and flanking the glyphosate oxidoreductase gene. The PCR conditions employed were as follows: 1 minute at 94° C., 2 minutes at 55° C., and 3 minutes at 72° C. and with 35 cycles. A 5:1 ratio of dCTP+dGTP+TTP to dATP was used. The reactions contained MnCl2 at 125, 250, 375, or 500 μM. After the reaction, the amplified product was recloned into a vector containing a weak E. coli promoter. This vector was a pBR327 derivative containing the araBAD promoter and suitable cloning sites. […] Growth rates were determined by measuring A550 over a 96 hour period. […] Protein concentrations were determined using the Bio-Rad protein dye-binding assay. […] Ten minutes was determined to be the optimal time for the enzyme assay using 10 μg lysate. […] Enzyme activity was determined from the amount of glyoxylate-DNPH adduct formed by measuring A520 against a standard of glyoxylate. […] The Km and Vmax were determined from Lineweaver Burk, Eadie-Hofstee and hyperbolic kinetic plots. […]

[2] = target: LBAA glyphosate oxidoreductase variant w1v2w3 (SER84, ARG153, HIS334) (Ochrobactrum sp. G-1, UniProt D2KI28, K153R/S2A); experiment: Kinetic analysis of domain switches, clone w1v2w3; format: biochemical, bacterial isolate LBAA (Pseudomonas strain LBAA); details: substrate glyphosate
Procedure: as §1

[3] = tested on: Agrobacterium sp. strain T10 glyphosate oxidoreductase; experiment: Km of glyphosate oxidoreductase from Agrobacterium sp. strain T10; format: biochemical
Procedure: A population of bacteria was isolated from a fixed-bed immobilized cell column, which employed Mannville R-635 diatomaceous earth beads, by plating on Tryptone Soy Agar (Difco), containing cylcoheximide at 100 ug/ml, and incubating at 28° C. The column had been run for three months on a waste-water feed from the Monsanto Company's Luling, MS, glyphosate production plant. The column contained 50 mg/ml glyphosate and NH3 as NH4Cl. Total organic carbon was 300 mg/ml and BOD's (Biological Oxygen Demand—a measure of “soft” carbon availability) was less than 30 mg/ml. This treatment column has been described (Heitkamp et al., 1990). […] Chromosomal DNA was prepared from this isolate and subjected to the same PCR procedure and with the same primers as described above for the strain LBr. A fragment of the correct size was generated and cloned into the E. coli expression vector. The glyphosate oxidoreductase activity was assayed and the Km for glyphosate also determined: […]

[4] = target: LBAA glyphosate oxidoreductase variant v1v2w3 (GLY84, ARG153, HIS334) (Ochrobactrum sp. G-1, UniProt D2KI28, K153R/S2A/S84G); experiment: Kinetic analysis of domain switches, clone v1v2w3; format: biochemical, bacterial isolate LBAA (Pseudomonas strain LBAA); details: substrate glyphosate
Procedure: as §1

## O=C(O)CNCP(=O)(O)O [glyphosate, N-phosphonomethyl-glycine]
[1]
  VmKm: 0.21
[2]
  VmKm: 0.026
[3]
  Km: 28 mM
[4]
  VmKm: 0.021
